Here are results for one molecule from US7754746B2, “Organic compounds” (Novartis AG, priority 2005, dated 2010).

This assay deals with recombinant GST-p110γ (human PI3Kγ residues 38-1102) (Homo sapiens, UniProt P48736). The experiment in a line: in vitro kinase assay (Scintillation Proximity Assay), phosphate transfer from ATP to phosphatidylinositol. The settings on record: 12.5 μM ATP in assay mix, 60 minutes at room temperature. In general terms: In a scintillation proximity assay essentially only radioactivity close to the scintillant gives light.
Chain of recombinant GST-p110γ (human PI3Kγ residues 38-1102) (P48736 38-1102): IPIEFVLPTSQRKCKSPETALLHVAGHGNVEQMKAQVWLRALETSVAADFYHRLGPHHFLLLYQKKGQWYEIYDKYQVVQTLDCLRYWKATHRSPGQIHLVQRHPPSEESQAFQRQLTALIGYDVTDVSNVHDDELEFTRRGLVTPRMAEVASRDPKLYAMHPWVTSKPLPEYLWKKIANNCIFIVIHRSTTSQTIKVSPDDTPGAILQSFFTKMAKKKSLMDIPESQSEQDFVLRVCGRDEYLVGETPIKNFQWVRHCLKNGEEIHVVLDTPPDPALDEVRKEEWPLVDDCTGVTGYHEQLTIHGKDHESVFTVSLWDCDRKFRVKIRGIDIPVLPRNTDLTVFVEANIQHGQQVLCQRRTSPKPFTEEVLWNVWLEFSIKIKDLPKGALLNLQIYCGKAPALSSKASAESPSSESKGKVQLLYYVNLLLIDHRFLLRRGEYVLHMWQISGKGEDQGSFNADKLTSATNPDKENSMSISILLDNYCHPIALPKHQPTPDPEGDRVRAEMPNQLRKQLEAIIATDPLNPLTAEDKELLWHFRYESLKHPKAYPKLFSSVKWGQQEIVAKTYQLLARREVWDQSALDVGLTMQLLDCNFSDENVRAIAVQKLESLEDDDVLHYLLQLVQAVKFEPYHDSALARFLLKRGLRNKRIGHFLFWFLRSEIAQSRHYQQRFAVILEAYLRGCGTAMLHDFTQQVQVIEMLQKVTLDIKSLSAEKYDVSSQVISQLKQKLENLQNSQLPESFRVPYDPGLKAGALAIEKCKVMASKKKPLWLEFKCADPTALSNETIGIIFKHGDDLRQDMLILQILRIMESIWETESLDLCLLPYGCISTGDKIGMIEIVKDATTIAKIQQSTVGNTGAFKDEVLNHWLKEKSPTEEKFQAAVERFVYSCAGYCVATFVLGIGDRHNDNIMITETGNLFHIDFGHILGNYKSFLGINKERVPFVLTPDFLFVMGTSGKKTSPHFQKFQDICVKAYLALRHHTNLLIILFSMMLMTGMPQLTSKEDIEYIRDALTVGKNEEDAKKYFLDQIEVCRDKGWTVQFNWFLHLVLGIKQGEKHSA

Description: An in vitro kinase assay was established that measures the transfer of the terminal phosphate of adenosine triphosphate to phosphatidylinositol. The kinase reaction is performed in a white 96 well microtitre plate as a Scintillation Proximity Assay. […] The reaction is started by the addition of 20 μl of enzyme mix (40 mM Tris, 200 mM NaCl, 2 mM EGTA containing recombinant GST-p110γ).

Regarding `CC(=O)c1ccc(-c2sc(NC(=O)NCCc3cn(CCF)cn3)nc2C)cc1` [Example 5], the IC50 came out at 110 nM.

A word on the IC50: it is the point on the concentration scale where inhibition reaches its midpoint.
